Key:
Type in all cases: in vivo
[1] = system: ducksalad (Heteranthera limosa); assay: Test C flooded paddy test; conditions: Flood, 0 is no effect, 100 is complete control
Source text: (§1) Plant species in the flooded paddy test consisted of rice (Oryza sativa), sedge, umbrella (small-flower umbrella sedge, Cyperus difformis), ducksalad (Heteranthera limosa), and barnyardgrass (Echinochloa crus-galli) grown to the 2-leaf stage for testing. At time of treatment, test pots were flooded to 3 cm above the soil surface, treated by application of test compounds directly to the paddy water, and then maintained at that water depth for the duration of the test. Treated plants and controls were maintained in a greenhouse for 13 to 15 d, after which time all species were compared to controls and visually evaluated. Plant response ratings, summarized in Table C, are based on a scale of 0 to 100 where 0 is no effect and 100 is complete control. A dash (-) response means no test result.

rice (Oryza sativa) = assay: Test C flooded paddy test; conditions: Flood, 0 is no effect, 100 is complete control
Source text: as §1

[2] = system: sedge, umbrella (small-flower umbrella sedge, Cyperus difformis); assay: Test C flooded paddy test; conditions: Flood, 0 is no effect, 100 is complete control
Source text: as §1

[3] = system: barnyardgrass (Echinochloa crus-galli); assay: Test C flooded paddy test; conditions: Flood, 0 is no effect, 100 is complete control
Source text: as §1

[4] = system: ragweed (common ragweed, Ambrosia elatior); assay: Test A postemergence
Summary of the method: (§2)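 Seeds sprayed preemergence with a directed soil spray, or plants at 2 to 10 cm height and one- to two-leaf stage sprayed postemergence, with test chemicals in a non-phytotoxic solvent mixture containing surfactant, in loam soil–sand blend. Injury rated visually against untreated controls after about 10 d in greenhouse, 0 (no effect) to 100 (complete control).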

[5] = system: blackgrass (Alopecurus myosuroides); assay: Test A postemergence
Summary of the method: as §2

[6] = system: wheat (Triticum aestivum); assay: Test A postemergence
Summary of the method: as §2

Kochia (Kochia scoparia) [7] = assay: Test A postemergence
Summary of the method: as §2

[8] = system: barnyardgrass (Echinochloa crus-galli); assay: Test A postemergence
Summary of the method: as §2

[9] = system: giant foxtail (Setaria faberii); assay: Test A postemergence
Summary of the method: as §2

[10] = system: pigweed (Amaranthus retroflexus); assay: Test A postemergence
Summary of the method: as §2

corn (Zea mays) = assay: Test A postemergence
Summary of the method: as §2

[11] = system: ryegrass, Italian (Italian ryegrass, Lolium multiflorum); assay: Test A postemergence
Summary of the method: as §2

[12] = system: Galium (catchweed bedstraw, Galium aparine); assay: Test A postemergence
Summary of the method: as §2

[13] = system: ragweed (common ragweed, Ambrosia elatior); assay: Test A preemergence
Summary of the method: as §2

Kochia (Kochia scoparia) [14] = assay: Test A preemergence
Summary of the method: as §2

[15] = system: barnyardgrass (Echinochloa crus-galli); assay: Test A preemergence
Summary of the method: as §2

[16] = system: giant foxtail (Setaria faberii); assay: Test A preemergence
Summary of the method: as §2

[17] = system: pigweed (Amaranthus retroflexus); assay: Test A preemergence
[18] = system: ryegrass, Italian (Italian ryegrass, Lolium multiflorum); assay: Test A preemergence
Summary of the method: as §2

[19] = system: ducksalad (Heteranthera limosa); assay: Test B flooded paddy test; conditions: Flood, 0 to 100 scale where 0 is no effect and 100 is complete control, 13 to 15 d
Summary of the method: (§3)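 Evaluation by eye, against controls, occurred 13–15 d post-treatment in a greenhouse, using a 0 (no effect) to 100 (complete control) scale. Application was into the paddy water, 3 cm deep over the soil, on 2-leaf plants.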

rice (Oryra sativa) = assay: Test B flooded paddy test; conditions: Flood, 0 to 100 scale where 0 is no effect and 100 is complete control, 13 to 15 d
Summary of the method: as §3

[20] = system: sedge, umbrella (small-flower umbrella sedge, Cyperus difformis); assay: Test B flooded paddy test; conditions: Flood, 0 to 100 scale where 0 is no effect and 100 is complete control, 13 to 15 d
Summary of the method: as §3

[21] = system: barnyardgrass (Echinochloa crus-galli); assay: Test B flooded paddy test; conditions: Flood, 0 to 100 scale where 0 is no effect and 100 is complete control, 13 to 15 d
Summary of the method: as §3

[22] = 125 g ai/ha, postemergence, visual rating after approx. 10 d, 0 to 100 scale (0 no effect, 100 complete control)
[23] = Postemergence, 500 g ai/ha, 0 to 100 scale where 0 is no effect and 100 is complete control
[24] = 125 g ai/ha, Preemergence, visual injury after approximately 10 d, 0 to 100 scale where 0 is no effect and 100 is complete control
[25] = Preemergence, 500 g ai/ha, visual injury approx. 10 d
[26] = 125 g ai/ha, postemergence, visual injury after approximately 10 d, 0 to 100 scale (0 no effect, 100 complete control)
[27] = 500 g ai/ha, postemergence, visual injury, 0 to 100 scale (0 no effect, 100 complete control), approx. 10 d
[28] = 125 g ai/ha, preemergence, visual rating after approx. 10 d, 0 to 100 scale where 0 is no effect and 100 is complete control
[29] = 500 g ai/ha, preemergence, 0 to 100 scale, 0 = no effect, 100 = complete control

C=CCN1CC(c2cccc(C(F)(F)F)c2)C(C(=O)Nc2cccc(F)c2F)C1=O (stereo not shown) [Compound 606]
Plant response rating (scale of 0 to 100), Ducksalad ([1]; 31 g ai/ha): 0
Plant response rating (scale of 0 to 100), Ducksalad ([1]; 62 g ai/ha): 0
Plant response rating (scale of 0 to 100), Ducksalad ([1]; 125 g ai/ha): 50
Plant response rating (scale of 0 to 100), Ducksalad ([1]; 250 g ai/ha): 70
Plant response rating (scale of 0 to 100), Rice (rice (Oryza sativa); 31 g ai/ha): 0
Plant response rating (scale of 0 to 100), Rice (rice (Oryza sativa); 62 g ai/ha): 0
Plant response rating (scale of 0 to 100), Rice (rice (Oryza sativa); 125 g ai/ha): 0
Plant response rating (scale of 0 to 100), Rice (rice (Oryza sativa); 250 g ai/ha): 0
Plant response rating (scale of 0 to 100), Sedge, Umbrella ([2]; 31 g ai/ha): 0
Plant response rating (scale of 0 to 100), Sedge, Umbrella ([2]; 62 g ai/ha): 0
Plant response rating (scale of 0 to 100), Sedge, Umbrella ([2]; 125 g ai/ha): 0
Plant response rating (scale of 0 to 100), Sedge, Umbrella ([2]; 250 g ai/ha): 0
Plant response rating (scale of 0 to 100), Barnyardgrass ([3]; 31 g ai/ha): 0
Plant response rating (scale of 0 to 100), Barnyardgrass ([3]; 62 g ai/ha): 0
Plant response rating (scale of 0 to 100), Barnyardgrass ([3]; 125 g ai/ha): 20
Plant response rating (scale of 0 to 100), Barnyardgrass ([3]; 250 g ai/ha): 40
Plant response rating, Ragweed [4, 22]: 0
Plant response rating, Ragweed [4, 23]: 0
Plant response rating, Blackgrass [5, 22]: 0
Plant response rating, Blackgrass [5, 23]: 40
Plant response rating, Wheat [6, 22]: 0
Plant response rating, Wheat [6, 23]: 0
Plant response rating, Kochia (Kochia (Kochia scoparia) [7]; [22]): 0
Plant response rating, Kochia (Kochia (Kochia scoparia) [7]; [23]): 0
Plant response rating, Barnyardgrass [8, 22]: 50
Plant response rating, Barnyardgrass [8, 23]: 70
Plant response rating, Foxtail, Giant [9, 22]: 70
Plant response rating, Foxtail, Giant [9, 23]: 90
Plant response rating, Pigweed [10, 22]: 50
Plant response rating, Pigweed [10, 23]: 70
Plant response rating, Corn (corn (Zea mays); [22]): 0
Plant response rating, Corn (corn (Zea mays); [23]): 0
Plant response rating, Ryegrass, Italian [11, 22]: 0
Plant response rating, Ryegrass, Italian [11, 23]: 0
Plant response rating, Galium [12, 22]: 60
Plant response rating, Galium [12, 23]: 70
Plant response rating, Ragweed [13, 24]: 0
Ragweed plant response rating (0 to 100 scale, 0 is no effect, 100 is complete control) [13, 25]: 0
Plant response rating, Kochia (Kochia (Kochia scoparia) [14]; [24]): 0
Kochia plant response rating (0 to 100 scale, 0 is no effect, 100 is complete control) (Kochia (Kochia scoparia) [14]; [25]): 0
Plant response rating, Barnyardgrass [15, 24]: 50
Barnyardgrass plant response rating (0 to 100 scale, 0 is no effect, 100 is complete control) [15, 25]: 80
Plant response rating, Foxtail, Giant [16, 24]: 80
Foxtail, Giant plant response rating (0 to 100 scale, 0 is no effect, 100 is complete control) [16, 25]: 90
Plant response rating, Pigweed [17, 24]: 0
Pigweed plant response rating (0 to 100 scale, 0 is no effect, 100 is complete control) [17, 25]: 0
Plant response rating, Ryegrass, Italian [18, 24]: 0
Ryegrass, Italian plant response rating (0 to 100 scale, 0 is no effect, 100 is complete control) [18, 25]: 0
Plant response rating, Ducksalad ([19]; 250 g ai/ha): 0
Plant response rating, Rice (rice (Oryra sativa); 250 g ai/ha): 0
Plant response rating, Sedge, Umbrella ([20]; 250 g ai/ha): 40
Plant response rating, Barnyardgrass ([21]; 250 g ai/ha): 50

O=C1NCC(c2cccc(OC(F)(F)C(F)F)c2)C1C(=O)Nc1ccccc1Cl (racemic) [Compound 699]
Plant response rating, Ragweed [4, 26]: 0
Plant response rating, Ragweed [4, 27]: 30
Plant response rating, Blackgrass [5, 26]: 30
Plant response rating, Blackgrass [5, 27]: 60
Plant response rating, Wheat [6, 26]: 0
Plant response rating, Wheat [6, 27]: 20
Plant response rating, Kochia (Kochia (Kochia scoparia) [7]; [26]): 30
Plant response rating, Kochia (Kochia (Kochia scoparia) [7]; [27]): 50
Plant response rating, Barnyardgrass [8, 26]: 50
Plant response rating, Barnyardgrass [8, 27]: 80
Plant response rating, Foxtail, Giant [9, 26]: 50
Plant response rating, Foxtail, Giant [9, 27]: 80
Plant response rating, Pigweed [10, 26]: 20
Plant response rating, Pigweed [10, 27]: 20
Plant response rating, Corn (corn (Zea mays); [26]): 30
Plant response rating, Corn (corn (Zea mays); [27]): 60
Plant response rating, Ryegrass, Italian [11, 26]: 0
Plant response rating, Ryegrass, Italian [11, 27]: 30
Plant response rating, Galium [12, 26]: 50
Plant response rating, Galium [12, 27]: 60
Plant response rating, Ragweed [13, 28]: 0
Plant response rating, Ragweed [13, 29]: 70
Plant response rating, Kochia (Kochia (Kochia scoparia) [14]; [28]): 0
Plant response rating, Kochia (Kochia (Kochia scoparia) [14]; [29]): 70
Plant response rating, Barnyardgrass [15, 28]: 90
Plant response rating, Barnyardgrass [15, 29]: 90
Plant response rating, Foxtail, Giant [16, 28]: 90
Plant response rating, Foxtail, Giant [16, 29]: 90
Plant response rating, Pigweed [17, 28]: 30
Plant response rating, Pigweed [17, 29]: 50
Plant response rating, Ryegrass, Italian [18, 28]: 20
Plant response rating, Ryegrass, Italian [18, 29]: 40
Plant response rating, Ducksalad ([19]; 500 g ai/ha): 90
Plant response rating, Rice (rice (Oryra sativa); 500 g ai/ha): 0
Plant response rating, Sedge, Umbrella ([20]; 500 g ai/ha): 0
Plant response rating, Barnyardgrass ([21]; 500 g ai/ha): 60
